Data from EP0226508A1, “Indolo[3,2-c]quinoline derivatives, process for their preparation and their anti-tumour activity” (priority 1985, dated 1987).
Read-outs that look alike come from different tables or passages of the source.

Tests used:
[1] = system: lignée tumorale leucémie L 1210; assay: In vitro cytotoxic activity on L 1210 leukemia cell culture (inhibition of cell proliferation); type: cell-based; conditions: L 1210 culture in exponential growth, 37°C, after 48 hours of contact, read-out: ID 50 (the source's name)
Description: 1) In vitro : (PAOLETTI et al., Chem. Biol. Interaction, 1979, 25, 45-58).
L'activité cytotoxique des composés de l'invention a été évaluée par des essais in vitro. Ces essais consistent à ajouter des concentrations croissantes du composé à tester à une culture cellulaire de la lignée tumorale leucémie L 1210 en phase exponentielle de croissance. Les cellules sont incubées à 37°C dans une étuve à CO₂ et comptées toutes les 24 heures. Le calcul de l'ID₅₀ (concentration du produit exprimée en micromole 1⁻¹ qui inhibe la prolifération cellulaire à 50 p. 100) est effectuée après 48 heures de contact. Ainsi déterminées les ID₅₀ des composés de l'invention sont rassemblées dans le tableau ci-après.

[2] = system: souris consanguines DBA₂ saines; assay: Acute toxicity, single intraperitoneal injection in healthy mice, mortality at day 7; type: in vivo; conditions: single i.p. injection, 50 mg/kg
leucémie P 388 = assay: animal or person; type: in vivo, souris hybrides CDF 1; conditions: for Nombre de survivants: survivors at J 40; for Variation pondérale en g: in vivo, ip
Source text: (§1) L'activité antitumorale a été testée in vivo sur différentes tumeurs selon le protocole général suivant:
(§2) Toutes les souris mâles ou femelles sont inoculées par voie intrapéritonéale au jour Jo avec une quantité déterminée de cellules tumorales viables, variable selon la tumeur.
(§3) Elles sont ensuite réparties en différents lots. Chaque lot correspondant aux animaux traités par le produit à tester à une dose déterminée est composé de 10 souris. Dans ce cas, le produit à tester est dissous dans l'eau distillée et il est administré, pendant n jours (J₁-Jn) variables selon le protocole choisi, par voie intrapéritonéale à raison de 0,1 ml par 10 g de poids des souris traitées, les doses du produit administré étant précisées dans les tableaux ci-dessous.
(§4) Le lot "contrôle négatif", correspondant aux animaux qui ne sont pas traités par un produit, comprend 2 √N animaux, N étant égal au nombre total de souris traitées par un produit.
(§5) Enfin, tous les essais sont conduits parallèlement à l'étude d'un lot appelé "contrôle positif" de 10 animaux qui est traité par une molécule active, variable selon le protocole choisi, dans les mêmes conditions que les lots traités par le produit à tester, afin de valider l'essai.
(§6) L'activité antitumorale est évaluée en considé-rant l'augmentation du temps de survie des animaux traités par rapport à celui des animaux du lot "contrôle négatif" selon la formule : [formula]
(§7) Un composé est considéré comme étant actif lorsque la valeur du rapport T/C est égale ou supérieure à 125 % selon le protocole retenu. Il est toxique lorsque cette valeur est égale ou inférieure à 85 %. Le produit est également considéré comme toxique lorsque la variation pondérale, exprimée en grammes et calculée par la formule : Poids moyen du lot mesuré au jour 5 -poids moyen du même lot au jour 1 est égale ou inférieure à - 4 g.
a) Test de la leucémie P 388 (GERAN et al., Cancer Chemother, 1972, 2, 07-57).
Les essais sont effectués avec des souris hybrides CDF 1 inoculées par voie intrapéritonéale avec 10⁶ cellules leucémiques de la lignée P 388. Le composé à tester est administré pendant 5 jours (J1-J5). Le contrôle positif du test est le 5-fluorouracile qui est administré dans les mêmes conditions. Le nombre d'animaux survivants est évalué au jour J 40. Un composé est considéré comme étant actif lorsque le rapport T/C est supérieur à 127 %.

leucémie L 1210 = assay: In vivo antitumour activity, L 1210 leukemia test; parameters: species or system souris hybrides CDF₁; conditions: L 1210, CDF₁ mice; for Nombre de survivants: survivors at J 30
Source text: as §1, §2, §3, §4, §5, §6, §7
b) Test de la leucémie L 1210 (GERAN et al., Cancer Chemother, 1972, 2, 07-57).
Les essais sont effectués avec des souris hybrides CDF₁ inoculées avec 10⁵ cellules leucémiques de la lignée L 1210. Le composé à tester est administré pendant 5 jours (J₁-J₅).Le contrôle positif du test est le 5-fluorouracile administré dans les mêmes conditions. Le nombre d'animaux survivants est évalué au jour J 30. Un composé est considéré comme étant actif lorsque le rapport T/C est supérieur ou égal à 125 %.

mélanome B 16 = assay: In vivo antitumour activity, B 16 melanoma test; parameters: species or system souris hybrides BDF₁; conditions: for Variation pondérale en g: in vivo, ip
Source text: as §1, §2, §3, §4, §5, §6
Le produit est également considéré comme toxique lorsque la variation pondérale, exprimée en grammes et calculée par la formule : Poids moyen du lot mesuré au jour 5 -poids moyen du même lot au jour 1 est égale ou inférieure à - 4 g.
Les essais sont effectués avec des souris hybrides BDF₁ inoculées avec 0,5 ml d'un homogénat de mélanome B 16 réalisé à partir de 1 g de tumeur dans 10 ml de sérum physiologique. Le composé à tester est administré pendant 9 jours (J₁-J₉).Le contrôle positif du test est le Cis-Platine administré dans les mêmes conditions. Le nombre d'animaux survivants est évalué au jour J 60.

[3] = Mus musculus, P388, ip, P 388, CDF 1 mice, 5 mg/kg i.p. J1-J5, read-out: T/C %
[4] = Mus musculus, P388, ip, P 388, CDF 1 mice, 10 mg/kg i.p. J1-J5, read-out: T/C %
[5] = Mus musculus, P388, ip, P 388, CDF 1 mice, 20 mg/kg i.p. J1-J5, read-out: T/C %
[6] = Mus musculus, P388, ip, P 388, CDF 1 mice, 2,5 mg/kg i.p. J1-J5, read-out: T/C %
[7] = P 388, CDF 1 mice, 10 mg/kg i.p. J1-J5
[8] = P 388, CDF 1 mice, 20 mg/kg i.p. J1-J5
[9] = P 388, CDF 1 mice, 2,5 mg/kg i.p. J1-J5
[10] = P 388, CDF 1 mice, 5 mg/kg i.p. J1-J5
[11] = B 16 melanoma, BDF₁ mice, 5 mg/kg i.p. J1-J9
[12] = B 16 melanoma, BDF₁ mice, 20 mg/kg i.p. J1-J9

## Oc1ccc2[nH]c3c4ccccc4nc(NCCCN4CCCCC4)c3c2c1 [Dérivé N°16, hydroxy-8 (pipéridino-3 propylamino)-6 11-H indolo[3,2-c]quinoléine]
[1]; Mus musculus, L1210
  IC50: 180 nM
[2]
  mortalité évaluée au septième jour après l'administration: aucune mortalité
leucémie P 388; [3]
  response vs control in vivo at 5 mg/kg: 133%
leucémie P 388; [4]
  response vs control in vivo at 10 mg/kg: 130%
leucémie P 388; [5]
  response vs control in vivo at 20 mg/kg: 77%
leucémie P 388; [6]
  response vs control in vivo at 2.5 mg/kg: 140%
leucémie P 388; [7]
  Nombre de survivants: 0
leucémie P 388; [8]
  Nombre de survivants: 0
leucémie P 388; [9]
  Nombre de survivants: 0
leucémie P 388; 5 mg/kg
  Variation pondérale en g: - 1,7 g
leucémie P 388; 10 mg/kg
  Variation pondérale en g: - 2,5 g
leucémie P 388; 20 mg/kg
  Variation pondérale en g: - 4,2 g
leucémie L 1210; 5 mg/kg i.p. J1-J5
  Jour médian de survie: 10
  T/C %: 126%
  Nombre de survivants: 0
leucémie L 1210; 10 mg/kg i.p. J1-J5
  Jour médian de survie: 10,4
  T/C %: 131%
  Nombre de survivants: 0
leucémie L 1210; 20 mg/kg i.p. J1-J5
  Jour médian de survie: 10,2
  T/C %: 129%
  Nombre de survivants: 0

## CN(C)CCCNc1nc2ccccc2c2[nH]c3ccc(O)cc3c12 [Dérivé N°12, (diméthylamino-3 propylamino)-6 hydroxy-8 11-H indolo [3,2-c]quinoléine]
[1]; Mus musculus, L1210
  IC50: 80 nM
[2]
  mortalité évaluée au septième jour après l'administration: aucune mortalité
leucémie P 388; [3]
  response vs control in vivo at 5 mg/kg: 155%
leucémie P 388; [4]
  response vs control in vivo at 10 mg/kg: 141%
leucémie P 388; Mus musculus, P388, ip, P 388, CDF 1 mice, 0,625 mg/kg i.p. J1-J5, read-out: T/C %
  response vs control in vivo at 0.625 mg/kg: 129%
leucémie P 388; Mus musculus, P388, ip, P 388, CDF 1 mice, 1,25 mg/kg i.p. J1-J5, read-out: T/C %
  response vs control in vivo at 1.25 mg/kg: 130%
leucémie P 388; [6]
  response vs control in vivo at 2.5 mg/kg: 141%
leucémie P 388; [10]
  Nombre de survivants: 0
leucémie P 388; [7]
  Nombre de survivants: 0
leucémie P 388; P 388, CDF 1 mice, 0,625 mg/kg i.p. J1-J5
  Nombre de survivants: 0
leucémie P 388; P 388, CDF 1 mice, 1,25 mg/kg i.p. J1-J5
  Nombre de survivants: 0
leucémie P 388; [9]
  Nombre de survivants: 0
leucémie P 388; 5 mg/kg
  Variation pondérale en g: - 1,2 g
leucémie P 388; 10 mg/kg
  Variation pondérale en g: - 1,7 g

## (éthylamino-3 propylamino)-6 hydroxy-8 11-H indolo[3,2-c]quinoléine [Dérivé N°14]
[1]
  IC50: 1400 nM
[2]
  mortalité évaluée au septième jour après l'administration: aucune mortalité
mélanome B 16; [11]
  Jour médian de survie: 34,25
  T/C %: 123%
mélanome B 16; [12]
  Jour médian de survie: 38,75
  T/C %: 139%
mélanome B 16; B 16 melanoma, BDF₁ mice, 20 mg/kg i.p. J1-J9, survivors at J 60
  Nombre de survivants: 0
mélanome B 16; 5 mg/kg
  Variation pondérale en g: - 0,2 g
mélanome B 16; 20 mg/kg
  Variation pondérale en g: - 1,3 g
leucémie P 388; [10]
  Jour médian de survie: 14,0
  T/C %: 127%
  Nombre de survivants: 0
leucémie P 388; [9]
  Jour médian de survie: 14,0
  T/C %: 127%
  Nombre de survivants: 0
leucémie P 388; 5 mg/kg
  Variation pondérale en g: + 1,7 g

## CCN(CC)CCCNc1nc2ccccc2c2[nH]c3ccc(OC)cc3c12 [Dérivé N°5, (diéthylamino-3 propylamino)-6 méthoxy-8 11-H indolo[3,2-c]quinoléine]
[1]; Mus musculus, L1210
  IC50: 690 nM
[2]
  mortalité évaluée au septième jour après l'administration: aucune mortalité
leucémie P 388; [4]
  response vs control in vivo at 10 mg/kg: 128%
leucémie P 388; [5]
  response vs control in vivo at 20 mg/kg: 124%
leucémie P 388; Mus musculus, P388, ip, P 388, CDF 1 mice, 40 mg/kg i.p. J1-J5, read-out: T/C %
  response vs control in vivo at 40 mg/kg: 80%
leucémie P 388; [7]
  Nombre de survivants: 0
leucémie P 388; [8]
  Nombre de survivants: 0
leucémie P 388; P 388, CDF 1 mice, 40 mg/kg i.p. J1-J5
  Nombre de survivants: 0
leucémie P 388; 10 mg/kg
  Variation pondérale en g: - 0,6 g
leucémie P 388; 20 mg/kg
  Variation pondérale en g: + 0,8 g
leucémie P 388; 40 mg/kg
  Variation pondérale en g: - 2,1 g

## Oc1ccc2[nH]c3c4ccccc4nc(NCCCN4CCOCC4)c3c2c1 [Dérivé N°15, hydroxy-8 (morpholino-3 propylamino)-6 11-H indolo[3,2-c]quinoléine]
[1]; Mus musculus, L1210
  IC50: 280 nM
[2]
  mortalité évaluée au septième jour après l'administration: aucune mortalité
leucémie P 388; [3]
  response vs control in vivo at 5 mg/kg: 130%
leucémie P 388; [6]
  response vs control in vivo at 2.5 mg/kg: 124%
leucémie P 388; [10]
  Nombre de survivants: 0
leucémie P 388; [9]
  Nombre de survivants: 0
leucémie P 388; 5 mg/kg
  Variation pondérale en g: - 1,1 g
leucémie L 1210; 10 mg/kg i.p. J1-J5
  Jour médian de survie: 10,2
  T/C %: 129%
  Nombre de survivants: 0
